Consider 33 molecules from US4450269A, “Mono-5-substituted-3-chloro-4H-1,2,6-thiadiazin-4-one antifungal agents” (FMC Corporation, priority 1980, dated 1984).

Counter-ions that a name gives are not always drawn.

For this experiment, the system named is Helminthosporium oryzae. In words: Mycelial growth test. To be noted: for Percent Fungus Growth Inhibition: HO, 72 hours; for inhibition at 5 ppm / inhibition at 10 ppm / inhibition at 20 ppm / inhibition at 40 ppm: Bipolaris oryzae, 72 h; for inhibition at 5 ppm: read-out: Percent Fungus Growth Inhibition, HO, 5 ppm, 72 hours; for inhibition at 10 ppm: read-out: Percent Fungus Growth Inhibition, HO, 10 ppm, 72 hours; for inhibition at 20 ppm: read-out: Percent Fungus Growth Inhibition, HO, 20 ppm, 72 hours; for inhibition at 40 ppm: read-out: Percent Fungus Growth Inhibition, HO, 40 ppm, 72 hours.

Consider “3-chloro-5-(bromophenoxy)-4H-1,2,6-thiadiazin-4-one [Compound 33]”, for which the “Percent Fungus Growth Inhibition” value (5 ppm) is 83%, the “Percent Fungus Growth Inhibition” value (10 ppm) amounted to 91%, the “Percent Fungus Growth Inhibition” value (20 ppm) is on record as 100% and the “Percent Fungus Growth Inhibition” value (40 ppm) is recorded as 100%.
On to “3-chloro-5-[methylaminocarbonyloxy)phenoxyl]-4H-1,2,6-thiadiazin-4-one [Compound 36]”, for which the “Percent Fungus Growth Inhibition” value is on record as 78% (5 ppm), 78% (10 ppm), 89% (20 ppm) and 100% (40 ppm).
For `O=c1c(Cl)nsnc1Oc1ccccc1` [Compound 2, 3-chloro-5-phenoxy-4H--1,2,6-thiadiazin-4-one], the inhibition (commonly the percentage by which the read-out fell short of the control) at 5 ppm came to 55%, the inhibition at 10 ppm was determined as 64%, the inhibition at 20 ppm is 100% and the inhibition at 40 ppm stood at 100%.
On to `Cc1ccc(Oc2nsnc(Cl)c2=O)cc1` [Compound 3, 3-chloro-5-(4-methylphenoxy)-4H--1,2,6-thiadiazin-4-one], for which the inhibition at 5 ppm stood at 55%, the inhibition at 10 ppm was determined as 64%, the inhibition at 20 ppm turned out to be 100% and the inhibition at 40 ppm turned out to be 100%.
Consider `CC(C)(C)c1ccc(Oc2nsnc(Cl)c2=O)cc1` [Compound 4, 3-chloro-5-(4-tert-butylphnoxy)-4H--1,2,6-thiadiazin-4-one], for which the inhibition at 5 ppm came out at 0%, the inhibition at 10 ppm amounted to 0%, the inhibition at 20 ppm was 24% and the inhibition at 40 ppm was 33%.
As for `COc1ccc(Oc2nsnc(Cl)c2=O)cc1` [Compound 5, 3-chloro-5-(4-methoxyphenoxy)4H--1,2,6-thiadiazin-4-one], the inhibition at 5 ppm stood at 50%, the inhibition at 10 ppm turned out to be 64%, the inhibition at 20 ppm was found to be 73% and the inhibition at 40 ppm was found to be 100%.
The like results for `CCCCOc1ccc(Oc2nsnc(Cl)c2=O)cc1` [Compound 6, 3-chloro-5-(4-n-butoxyphenoxy)-4H--1,2,6-thiadiazin-4-one] were, in that order, 0%, 0%, 0% and 48%.
As for `CCOC(=O)c1ccc(Oc2nsnc(Cl)c2=O)cc1` [Compound 7, 3-chloro-5-(4-ethoxycarbonylphenoxy)-4H--1,2,6-thiadiazin-4-one], the inhibition at 5 ppm stood at 48%, the inhibition at 10 ppm amounted to 43%, the inhibition at 20 ppm came out at 100% and the inhibition at 40 ppm was 100%.
Consider `CC(=O)Nc1ccc(Oc2nsnc(Cl)c2=O)cc1` [Compound 8, 5-(4-acetylaminophenoxy)-3-chloro-4H--1,2,6-thiadiazin-4-one], for which the inhibition at 5 ppm came to 24%, the inhibition at 10 ppm came to 33%, the inhibition at 20 ppm is 0% and the inhibition at 40 ppm worked out at 81%.
Consider `O=c1c(Cl)nsnc1Oc1ccc([N+](=O)[O-])cc1` [Compound 9, 3-chloro-5-(4-nitrophenoxy)-4H--1,2,6-thiadiazin-4-one], for which the inhibition at 5 ppm was found to be 50%, the inhibition at 10 ppm is 82%, the inhibition at 20 ppm came out at 86% and the inhibition at 40 ppm came to 100%.
For the molecule `N#Cc1ccc(Oc2nsnc(Cl)c2=O)cc1` [Compound 10, 3-chloro-5-(4-cyanophenoxy)-4H--1,2,6-thiadiazin-4-one], the inhibition at 5 ppm amounted to 57%, the inhibition at 10 ppm stood at 52%, the inhibition at 20 ppm is 100% and the inhibition at 40 ppm was 100%.
With `O=c1c(Cl)nsnc1Oc1ccc(F)cc1` [Compound 11, 3-chloro-5-(4-fluorophenoxy)-4H--1,2,6-thiadiazin-4-one], the inhibition at 5 ppm was 62%, the inhibition at 10 ppm is 100%, the inhibition at 20 ppm is 100% and the inhibition at 40 ppm was determined as 100%.
In the case of `O=c1c(Cl)nsnc1Oc1ccc(Cl)cc1` [Compound 12, 3-chloro-5-(4-chlorophenoxy)-4H--1,2,6-thiadiazin-4-one], the inhibition at 5 ppm was determined as 59%, the inhibition at 10 ppm is 59%, the inhibition at 20 ppm is 100% and the inhibition at 40 ppm amounted to 100%.
As to `O=c1c(Cl)nsnc1Oc1cccc(Cl)c1` [Compound 13, 3-chloro-5-(3-chlorophenoxy)-4H--1,2,6-thiadiazin-4-one], the inhibition at 5 ppm came out at 71%, the inhibition at 10 ppm stood at 86%, the inhibition at 20 ppm came to 76% and the inhibition at 40 ppm was determined as 81%.
The like results for `O=c1c(Cl)nsnc1Oc1ccccc1Cl` [Compound 14, 3-chloro-5-(2-chlorophenoxy)-4H--1,2,6-thiadiazin-4-one] were, in that order, 71%, 71%, 100% and 100%.
As for `O=c1c(Cl)nsnc1Oc1ccc(Br)cc1` [Compound 15, 3-chloro-5-(4-bromophenoxy)-4H--1,2,6-thiadiazin-4-one], the inhibition at 5 ppm turned out to be 57%, the inhibition at 10 ppm was found to be 90%, the inhibition at 20 ppm was found to be 95% and the inhibition at 40 ppm came to 100%.
The like results for `O=c1c(Cl)nsnc1Oc1ccc(Cl)c(Cl)c1` [Compound 16, 3-chloro-5-(3,4-dichlorophenoxy)-4H--1,2,6-thiadiazin-4-one] were, in that order, 64%, 55%, 55% and 82%.
The like results for `O=c1c(Cl)nsnc1Oc1ccc(Cl)cc1Cl` [Compound 17, 3-chloro-5-(2,4-dichlorophenoxy)-4H--1,2,6-thiadiazin-4-one] were, in that order, 100%, 100%, 100% and 100%.
Consider `O=c1c(Cl)nsnc1Oc1c(Cl)cccc1Cl` [Compound 18, 3-chloro-5-(2,6-dichlorophenoxy)-4H--1,2,6-thiadiazin-4-one], for which the inhibition at 5 ppm was 86%, the inhibition at 10 ppm stood at 86%, the inhibition at 20 ppm amounted to 100% and the inhibition at 40 ppm stood at 100%.
`O=c1c(Cl)nsnc1Oc1cccc(Cl)c1Cl` [Compound 19, 3-chloro-5-(2,3-dichlorophenoxy)-4H--1,2,6-thiadiazin-4-one]: the inhibition at 5 ppm was determined as 100%, the inhibition at 10 ppm was 90%, the inhibition at 20 ppm stood at 100% and the inhibition at 40 ppm was determined as 100%.
With `O=c1c(Cl)nsnc1Oc1cc(Cl)cc(Cl)c1` [Compound 20, 3-chloro-5-(3,5-dichlorophenoxy)-4H--1,2,6-thiadiazin-4-one], the inhibition at 5 ppm stood at 100%, the inhibition at 10 ppm amounted to 100%, the inhibition at 20 ppm was 100% and the inhibition at 40 ppm worked out at 100%.
Regarding `Cc1cccc(Oc2nsnc(Cl)c2=O)c1` [Compound 21, 3-chloro-5-(3-methylphenoxy)-4H--1,2,6-thiadiazin-4-one], the inhibition at 5 ppm turned out to be 64%, the inhibition at 10 ppm turned out to be 86%, the inhibition at 20 ppm stood at 100% and the inhibition at 40 ppm is 100%.
On to `Cc1ccccc1Oc1nsnc(Cl)c1=O` [Compound 22, 3-chloro-5-(2-methylphenoxy)-4H--1,2,6-thiadiazin-4-one], for which the inhibition at 5 ppm is 100%, the inhibition at 10 ppm turned out to be 100%, the inhibition at 20 ppm came to 100% and the inhibition at 40 ppm came out at 100%.
Turning to `Cc1ccc(Oc2nsnc(Cl)c2=O)c(C)c1` [Compound 23, 3-chloro-5-(2,4-dimethylphenoxy)-4H--1,2,6-thiadiazin-4-one], the inhibition at 5 ppm was 100%, the inhibition at 10 ppm was determined as 100%, the inhibition at 20 ppm worked out at 100% and the inhibition at 40 ppm turned out to be 100%.
On to `Cc1cccc(C)c1Oc1nsnc(Cl)c1=O` [Compound 24, 3-chloro-5-(2,6-dimethylphenoxy)-4H--1,2,6-thiadiazin-4-one], for which the inhibition at 5 ppm is 86%, the inhibition at 10 ppm was 100%, the inhibition at 20 ppm is 100% and the inhibition at 40 ppm amounted to 100%.
With `Cc1cc(C)cc(Oc2nsnc(Cl)c2=O)c1` [Compound 25, 3-chloro-5-(3,5-dimethylphenoxy)-4H--1,2,6-thiadiazin-4-one], the inhibition at 5 ppm stood at 79%, the inhibition at 10 ppm is 100%, the inhibition at 20 ppm worked out at 100% and the inhibition at 40 ppm turned out to be 100%.
With `Nc1ccc(Oc2nsnc(Cl)c2=O)cc1` [Compound 26, 5-(4-aminophenoxy)-3-chloro-4H--1,2,6-thiadiazin-4-one], the inhibition at 20 ppm worked out at 57%. Moreover, for the setting “5 ppm”, the “Percent Fungus Growth Inhibition” value was 43%. Besides, where the note is “40 ppm”, the “Percent Fungus Growth Inhibition” value is given as 100%.
With `Nc1ccc(Oc2nsnc(Cl)c2=O)cc1` [Compound 27, 5-(4-aminophenoxy)-3-chloro-4H--1,2,6-thiadiazine-4-one hydrochloride], the “Percent Fungus Growth Inhibition” value by setting is: (5 ppm, hydrochloride) 0%; (10 ppm, hydrochloride) 21%; (20 ppm, hydrochloride) 43%; (40 ppm, hydrochloride) 57%.
As for `CNC(=O)Nc1ccc(Oc2nsnc(Cl)c2=O)cc1` [Compound 28, 3-chloro-5-[4-(3-methylureido)-phenoxy]-4H--1,2,6-thiadiazin-4-one], the inhibition at 5 ppm is 29%, the inhibition at 10 ppm was determined as 29%, the inhibition at 20 ppm was determined as 21% and the inhibition at 40 ppm came to 64%.
For `O=C(Nc1ccccc1)Nc1ccc(Oc2nsnc(Cl)c2=O)cc1` [Compound 29, 3-chloro-5-[4-(3-phenylureido)-phenoxy]-4H--1,2,6-thiadiazin-4-one], the inhibition at 5 ppm is 0%, the inhibition at 10 ppm came out at 0%, the inhibition at 20 ppm was 14% and the inhibition at 40 ppm amounted to 0%.
`O=c1c(Cl)nsnc1Oc1c(Cl)cc(Cl)cc1Cl` [Compound 30, 3-chloro-5-(2,4,6-trichlorophenoxy)-4H--1,2,6-thiadiazin-4-one]: the inhibition at 5 ppm came out at 59%, the inhibition at 10 ppm came to 100%, the inhibition at 20 ppm was determined as 100% and the inhibition at 40 ppm stood at 100%.
`O=c1c(Cl)nsnc1Oc1c(Cl)c(Cl)c(Cl)c(Cl)c1Cl` [Compound 31, 3-chloro-5-(pentachlorophenoxy)-4H--1,2,6-thiadiazine-4-one]: the inhibition at 5 ppm stood at 57%, the inhibition at 10 ppm is 86%, the inhibition at 20 ppm was 57% and the inhibition at 40 ppm worked out at 100%.
On to `O=c1c(Cl)nsnc1Oc1cccc2ccccc12` [Compound 32, 3-chloro-5(1-naphthoxy)-4H-1,2,6-thiadiazin-4-one], for which the inhibition at 5 ppm worked out at 100%, the inhibition at 10 ppm stood at 63%, the inhibition at 20 ppm stood at 100% and the inhibition at 40 ppm worked out at 100%.
